From patent US20070270348A1, “Compositions and Methods for Modulating Insulin-Activated Nitric Oxide Synthase” (priority 2004, published 2007)
Entries after “also recorded” stand apart in the source; their conditions may differ. Read-outs that look alike come from different tables or passages of the source. Ends that are not written are not given here.

Assays:
human erythrocytes = assay: Stimulation of nitric oxide synthesis from l-arginine in human erythrocyte suspension; type: cell-based
Experimental: Stimulation of nitric oxide synthesis from l-arginine by allimin in human erythrocytes was shown by incubation of a human erythrocyte suspension with different concentrations of purified allimin.
Fractions (1.5 ml each) were collected and the ability of each fraction to stimulate nitric oxide synthesis from l-arginine in human erythrocytes was determined.
The stimulation of nitric oxide synthesis was determined by assaying 0.1 ml of aqueous extracts of garlic or benzene purified allimin or different fractions from the SEPHADEX® column to erythrocyte suspensions in Kreb's buffer, pH 7.4. The formation of nitric oxide in the reaction mixture was quantitated by the conversion of oxyhemoglobin to methemoglobin. Quantitative amounts of nitric oxide in the reaction mixture were confirmed independently by chemiluminescence technique. Briefly 1.0 ml of the reaction supernatant was treated with 15 mM (final concentration) of oxyhemoglobin under N2. The spectral changes at 650, 630 and 575 nm due to the conversion of oxyhemoglobin to methemoglobin was continuously monitored by using a scanning BECKMAN spectrophotometer to quantitate nitric oxide formation using greater than 99% percent pure preparation of nitric oxide.
Blood was collected from healthy male and female volunteers, between the ages of 25-50 years, who had not taken any medication for at least for 14 days prior to the donation of blood. The blood was anti-coagulated by adding 1 volume 130 mM sodium citrate to 9 volumes of blood, mixed by gentle inversion, and the erythrocyte suspension was prepared.

[1] = system: mice epitrochlearis muscle; assay: Glucose transport activity in epitrochlearis muscle; type: cell-based; settings: insulin 200 μU/ml, allimin 50 μg/ml, NAME 10 μg/ml, mean ± SD
Experimental: (§1) The in vitro effect of allimin on glucose transport and glucose oxidation was compared with that of insulin in mice epitrochlearis muscle which is reported to be a model target tissue for insulin action. […] Addition of NAME to the incubation mixture inhibited the insulin-mimicking effect of allimin on both glucose transport and glucose oxidation. In another study, membranes from epitrochlearis muscle were prepared and the effect of allimin on the activation of the membrane tyrosine kinase and PI3 kinase were determined by incubating the membrane preparation with either insulin or allimin.
Mice epitochlearis muscle and the membrane of the muscle were prepared. Glucose transport activity was determined by incubating […] of epitochlearis muscle in Krebs-Ringer buffer, pH 7.4, in the presence of either insulin ([…]) or allimin ([…]) using a 2-deoxy D-^14C glucose. Glucose oxidation was determined by incubating […] of epitrochlearis muscle in Krebs-Ringer buffer, pH 7.4, in the presence of either insulin or allimin as indicated using U-14C glucose. Insulin- or allimin-induced activation of tyrosine kinase and PI3 kinase activities of the membrane preparation were determined using anti-phosphotyrosine antibody and PI3 kinase antibody, respectively, as described. Results shown in Table 4 are mean ±SD of 5 to 6 experiments using different animals.

[2] = system: mice epitrochlearis muscle; assay: Glucose oxidation in epitrochlearis muscle; type: cell-based; settings: insulin 200 μU/ml, allimin 50 μg/ml, NAME 10 μg/ml, mean ± SD
Experimental: as §1
The effect of allimin on the oxidation of glucose was compared with that of insulin. […] Glucose oxidation was determined.
(§2) Mice epitochlearis muscle and the membrane of the muscle were prepared. Glucose transport activity was determined by incubating […] of epitochlearis muscle in Krebs-Ringer buffer, pH 7.4, in the presence of either insulin ([…]) or allimin ([…]) using a 2-deoxy D-^14C glucose. Glucose oxidation was determined by incubating […] of epitrochlearis muscle in Krebs-Ringer buffer, pH 7.4, in the presence of either insulin or allimin as indicated using U-14C glucose. […]

membrane tyrosine kinase = assay: Membrane tyrosine kinase activation; type: biochemical, mice; settings: insulin 200 μU/ml, allimin 50 μg/ml, none = 100, mean ± SD
Experimental: as §1
The effect of allimin on the activation of epitrochlearis muscle membrane was determined using monoclonal anti-phosphotyrosine kinase antibody, Glu^80 Tyr^80 copolymer, and [^32P]-ATP and compared with that of insulin.
as §2

PI3 kinase = PI3 kinase activation of muscle membrane; type: biochemical, mice; settings: insulin 200 μU/ml, allimin 50 μg/ml, none = 100, mean ± SD
Experimental: as §1
The activation of PI3 kinase of mice epitrochlearis muscle membrane either by allimin or insulin was determined using PI3 kinase antibody. […] The PI3 kinase activity was determined by CHCl3—CH3OH extraction and HPLC.
as §2

[3] = system: non-diabetic and alloxan-induced diabetic mice; assay: Plasma nitric oxide level after oral administration in mice; type: in vivo
Experimental: The effect of oral administration of allimin on the plasma nitric oxide level in diabetic and non-diabetic mice was determined using alloxan-induced diabetic mice as compared to normal non-diabetic mice. […] Allimin was orally administered (75 μg/kg body weight) to non-diabetic and alloxan-induced diabetic mice. The plasma nitric oxide level was measured on different days. Results were obtained from 10 mice in each group in triplicate. While the plasma nitric oxide level in the diabetic mice was 0.1±0.02 nmol/ml, the nitric oxide level in the non-diabetic mice was 0.75±0.05 nmol/ml (p<0.05). Upon oral administration of allimin (75 micrograms/kg body weight), the plasma nitric oxide level was increased to 0.45±0.05 nmol/ml within 24 hours and continued to increase thereafter, to a maximum of 0.8±0.1 nmol/ml on the third day. On the fourth day, the plasma nitric oxide level began to gradually decrease. On the sixth day, the plasma nitric oxide level returned to the pretreatment level in the diabetic mice.
A total of 60 mice were studied.

EAC cells = assay: Viability of EAC cells in peritoneal fluid; type: in vivo, Swiss albino mice
Experimental: Experiments were performed to determine the effects of allimin on the viability of EAC cells, a measure of the anti-neoplastic activity of allimin. Total EAC count (dead+viable cells) in peritoneal fluid was determined after 14 days of injection of EAC in the allimin treated and the untreated mice. […] It was noted that 25% of the viable EAC in the fluid of allimin-treated mice were twice as large (size) as compared to those in the untreated mice. This increase in cell size is indicative of the onset of death and the loss of the ability to regulate osmotic pressure (Ballas (1999) Merck Manual, Merck Research Laboratories, Whitehouse Station, N.J., pp. 1002-1023). The cellular basis for the decreased viability of the carcinoma cells in the allimin-treated mice was tested using a DNA fragmentation assay (Liu et al. (2000) Nucleic Acids Res. 28:4180-4188).

[4] = system: ADP-induced platelet aggregation; assay: ADP-induced platelet aggregation in platelet rich plasma; type: cell-based; settings: 40 nM, 30 minutes at 23° C., 6 μM ADP
Experimental: Given the role of nitric oxide in the function of platelets it is was determined whether allimin could modulate platelet aggregation. Platelet Rich Plasma (PRP) was isolated from citrated blood and incubated with […] Allimin for 30 minutes at 23° C. Subsequently, 6 μM adenosine 5′-diphosphate (ADP) was added and inhibition of ADP-induced platelet aggregation was recorded and compared with a control.

[5] = system: alloxan-induced diabetic mice; settings: for duration of euglycemia / normal glucose levels after one dose: single oral bolus; for plasma glucose level: oral allimin
Experimental: To determine whether the increased plasma nitric oxide level achieved through the oral administration of allimin would result in the decrease of elevated plasma glucose levels in diabetic mice, the plasma glucose level was continuously monitored. […] In a further study, diabetic mice were injected with insulin (200 μunits/25 g) in their hind leg muscle instead of oral administration of allimin.
Inbred albino mice of both sexes were raised in an institutional facility from birth to age 2 months and weighed between 20-25 grams. These mice were allowed free access to feed and sterile water under 12 hour cycles of alternating light and dark. A total of 60 mice were studied. Group I consisted of 20 mice that were divided into 4 subgroups of 5 mice per subgroup. […] Group II consisted of 20 mice that were divided in 4 groups, 5 mice in each subgroup. All of the mice were made diabetic, one of the diabetic subgroup of mice received insulin and the second diabetic subgroup received oral administration of allimin.
Alloxan was used to induce diabetes in mice in accordance with standard methods. Blood glucose levels were determined by using glucose oxidase strips in a glucometer. The mice were considered to be diabetic when the blood glucose level after overnight fasting were 250-300 mg/dl as compared to 70-80 mg/dl in non-diabetic mice. […] When these diabetic mice were fed ad libitum, the blood glucose level increased to 400-450 mg/dl after 2 hours of feeding.

[6] = system: Ehrlich's ascitic carcinoma cells (EAC cells); assay: Survival and body weight of mice with Ehrlich's carcinoma ascites; settings: daily allimin
Source text: In addition to normal or control mice, ascitic carcinoma was induced in Swiss albino mice by injecting approximately 10^6 Ehrlich's ascitic carcinoma cells (EAC cells) into the peritoneal cavity of mice (Hartveit et al. (1970) Acta. Pathol. Microbiol. Scand. 78:516-524). Animals were divided into two groups, one group receiving laboratory chow alone and the other receiving allimin (75 micrograms/kg body weight/day) along with laboratory chow. Animals in each group were given the respective diets for 10 days before both groups were injected with EAC cells. Dietary treatment then continued during ascites development such that an increase of an EAC cell count to 5×10^6 cells/ml was achieved.

mouse erythrocytes = assay: Nitric oxide production in erythrocytes of mice injected with EAC cells; settings: for NO produced by erythrocytes: EAC mice, allimin 75 micrograms/kg/day oral
Experimental: Using a well-established mouse model for anti-neoplastic drug testing (Hartveit et al. (1970) Acta. Pathol. Microbiol. Scand. 78:516-524), the effects of oral administration of allimin on the production of nitric oxide in mouse erythrocytes was examined. Blood was drawn from the tail vein of Swiss albino mice (2 months of age) and was anti-coagulated by adding sodium citrate to the blood sample. The erythrocyte suspension was prepared according to standard methods (Ray et al. (1986) Biochim. Biophys. Acta. 856:421-427). […] The formation of nitric oxide in the reaction mixture was quantitated by the conversion of oxyhemoglobin to methemaglobin (Jia et al. (1996) Nature 380:221-226) and verified by chemiluminescence techniques (Sinha et al. (1999) Life Sci. 265:2687-2696). In addition to normal or control mice, ascitic carcinoma was induced in Swiss albino mice by injecting approximately 10^6 Ehrlich's ascitic carcinoma cells (EAC cells) into the peritoneal cavity of mice (Hartveit et al. (1970) Acta. Pathol. Microbiol. Scand. 78:516-524). Animals were divided into two groups, one group receiving laboratory chow alone and the other receiving allimin (75 micrograms/kg body weight/day) along with laboratory chow. Animals in each group were given the respective diets for 10 days before both groups were injected with EAC cells. Dietary treatment then continued during ascites development such that an increase of an EAC cell count to 5×10^6 cells/ml was achieved.
For the preparation of erythrocyte suspensions from mice, blood was drawn from the tail vein and anti-coagulated by adding sodium citrate to the blood sample and a suspension was made as described by Ray et al. ((1986) Biochim. Biophys. Acta 856:421-427).

COC(=O)[C@@H](N)CCCNC(=N)N[N+](=O)[O-] [NAME, NG-nitro L-arginine methyl ester, reference compound]
inhibition of allimin-stimulated nitric oxide synthesis (human erythrocytes; 10 μM NAME added to reaction mixture with allimin): completely inhibited; also recorded: complete inhibition

Allimin (XMIPTNGEGLYAGQSLDVEQYKFIMRPDDNLVXYX; X: residue not identified in the source; listed as Allium sp.)
concentration at which synthesis of nitric oxide was maximally stimulated (human erythrocytes; human erythrocyte suspension): 8 nM | Specific Activity (nmol NO/mg/h) (human erythrocytes; purification step of garlic extract, stimulation of NO synthesis): 563.75 nmol NO/mg/h | Glucose transport [1]: 82 ± 6 nmol/g protein/minute | Glucose Oxidation [2]: 306 ± 82 nmol/g protein/minute | Tyrosine kinase activation (membrane tyrosine kinase): 215 ± 10 % activation | PI3 kinase activation (PI3 kinase): 187 ± 12 % activation | duration of elevation of plasma nitric oxide ([3]; diabetic mice, one time oral bolus dose): about five days; also recorded: four to five days | day plasma nitric oxide level returned to pretreatment level ([3]; diabetic mice, single oral 75 micrograms/kg): sixth day | plasma nitric oxide level, maximum ([3]; diabetic mice, single oral 75 micrograms/kg, third day): 0.8 ± 0.1 nmol/mL | plasma nitric oxide level ([3]; diabetic mice, single oral 75 micrograms/kg, within 24 hours, pretreatment 0.1±0.02): 0.45 ± 0.05 nmol/mL | day plasma nitric oxide level decreased to pretreatment level ([3]; non-diabetic mice, oral feeding): fourth day | total EAC count (dead+viable cells) in peritoneal fluid (EAC cells; 14 days after injection of EAC): 7×10^6 cells/ml | dead EAC count in peritoneal fluid (EAC cells; 14 days after injection of EAC, untreated 3×10^4): 2×10^5 cells/ml | pathway of EAC cell death (DNA fragmentation assay) (EAC cells; oral allimin): induced the necrotic pathway | viable EAC twice as large as in untreated mice (EAC cells; peritoneal fluid of treated mice): 25% | inhibition of ADP-induced platelet aggregation [4]: potent inhibitor of platelet aggregation | duration of euglycemia / normal glucose levels after one dose ([5]; diabetic animals): up to four or five days | duration of euglycemia / normal glucose levels after one dose ([5]; diabetic animals, listed as allimin): four to five consecutive days | plasma glucose level ([5]; diabetic mice, next four days): 120 to 130 mg/dL | plasma glucose level ([5]; diabetic mice, sixth day): above 350 mg/dl | plasma glucose level ([5]; diabetic mice, within next 12 hours, initial 470±20): 120 ± 10 mg/dL | survival at 20 days ([6]; controls succumbed by day 20): survived the EAC carcinogenic insult at 20 days | mice surviving at least 40 days ([6]; p<0.01): Ten percent | nitric oxide production from erythrocytes restored to (mouse erythrocytes; allimin fed 10 days after the carcinogenic insult, 4.02% without): 92.78% | NO produced by erythrocytes (mouse erythrocytes; day 1): 0.569 ± 0.02 nmol NO produced/10^8 cells/hour | NO produced by erythrocytes (mouse erythrocytes; day 5): 0.392 ± 0.01 nmol NO produced/10^8 cells/hour | NO produced by erythrocytes (mouse erythrocytes; day 10): 0.408 ± 0.02 nmol NO produced/10^8 cells/hour | NO produced by erythrocytes (mouse erythrocytes; day 15): 0.440 ± 0.01 nmol NO produced/10^8 cells/hour | NO produced by erythrocytes (mouse erythrocytes; day 20): 0.498 ± 0.02 nmol NO produced/10^8 cells/hour | NO produced by erythrocytes (mouse erythrocytes; day 25): 0.532 ± 0.02 nmol NO produced/10^8 cells/hour | NO produced by erythrocytes (mouse erythrocytes; day 30): 0.528 ± 0.03 nmol NO produced/10^8 cells/hour | reduction of nitric oxide production in erythrocytes (mouse erythrocytes; twenty days after EAC injection, dietary allimin, 86.72% without): 12.48%

Insulin: Insulin (trade name HUMULIN, obtained from Eli Lilly) [reference compound]
Glucose transport [1]: 75 ± 4 nmol/g protein/minute | Glucose Oxidation [2]: 278 ± 80 nmol/g protein/minute | Tyrosine kinase activation (membrane tyrosine kinase): 210 ± 18 % activation | PI3 kinase activation (PI3 kinase): 155 ± 10 % activation | duration of control of hyperglycemia ([5]; diabetic animals, single intramuscular injection): less than 24 hours | blood glucose level after injection ([5]; diabetic mice, 200 μunits/25 g in hind leg muscle, within next 24 hours): 350 ± 20 mg/dL | effect of oral administration on elevated blood glucose level ([5]; diabetic mice, oral): no effect
